Entries after “also recorded” stand apart in the source; their conditions may differ.
Assays:
[1] = test system: HepG2 hepatocellular carcinoma cells; experiment: HepG2 western blot, sorafenib with or without MM-141; assay type: cell-based; conditions: MM-141 500 nM added to sorafenib 5 μM, 2 hours
Experimental: HepG2 cells were plated on 12 well dishes (3×10^5 cells per well) in 10% serum-containing media and incubated overnight. […] Following treatment, cells were harvested in lysis buffer containing protease and phosphatase inhibitors and analyzed by western blotting.

[2] = Phase 1 PK analysis of serum MM-141 (ELISA, non-compartmental); assay type: in vivo, human; conditions: range
Experimental: (§1) Serum for PK and PD analysis was prepared by drawing whole blood into red top tubes, clotting 30 minutes at 4-8° C. and spinning down in a refrigerated centrifuge. Serum was aliquotted and frozen immediately after centrifugation. PD analysis of total IGF-1 in serum was performed using Human IGF-I Quantikine® ELISA Kit (R&D Systems, Minneapolis, Minn.) according to the manufacturer's instructions. For the PK analysis, in brief, ELISA plates were plates were coated with IGF-1R (R&D Systems) in PBS and incubated overnight at 4° C. Plates were washed, blocked, and then samples and standards were added to plates and incubated for 2 hr at room temperature. Plates were washed and ErbB3-His was added for 1 hr at room temperature. Plates were washed and anti-His-HRP (Abeam, Cambridge, Mass.) was added for 1 hr at room temperature. Plates were developed using TMB and STOP solution and absorbance was read at 450 nm. PK parameters were analyzed using descriptive statistics including the median, mean and 95% confidence intervals around parameter estimates by dose level. All PK parameters included Cmax, Tmax, AUC (area under the concentration curve), clearance, volume of distribution at steady state (Vdss), and the terminal elimination half-life. Estimation of the PK parameters was performed using standard non-compartmental methods.

[3] = test system: IGF-1R and ErbB3 receptors; experiment: Receptor expression ELISA versus monospecific antibodies (Example 31); assay type: cell-based; conditions: 50 nM, four hours post-treatment, compared with monospecific antibodies
Experimental: Cell lysates were harvested four hours post-treatment with antibodies as indicated in FIGS. 33A and 33B (50 nM of each antibody) and changes in receptor expression were measured by ELISA. All ELISA measurements are normalized to vehicle (PBS) treatment, and these measurements are expressed relative to a vehicle treated control value of 1.

CAKI-1 xenografts = experiment: CAKI-1 xenograft PD, western blot; assay type: in vivo, mice
Experimental: For the PD study results shown in FIGS. 3A-B and FIGS. 5A-C, NOD/SCID female mice were inoculated with 12×10^6 CAKI-1 or 10×10^6 SK-ES-1 cells, respectively, in 1:1 Matrigel® suspension. […] Tumors were harvested 24 hours after the second dose of drug; lysates were generated and subjected to western blot analysis.

BxPC-3 cells = experiment: Cellular proliferation assay in low serum with or without IGF-1 or HRG; assay type: cell-based, human; conditions: for inhibition of cell growth: low (2%) serum
[4] = test system: BxPC-3 pancreatic cancer cells; experiment: CTG cell viability, paclitaxel with IGF-1 or HRG, three-dimensional cultures; assay type: cell-based, human
Experimental: The cell viability assay (FIGS. 7A-B and 8A-B) was carried out using a CellTiter-Glo® (CTG) assay (Promega), which determines the number of viable cells in a culture based on quantitation of the ATP present. In FIGS. 7A-B, BxPC-3 cells were grown in low serum alone or with exogenous IGF-1 or HRG added (0-50 nM). […] For the cell viability assays described in FIGS. 8(A-B), (FIG. 8A) BxPC-3 and (FIG. 8B) CFPAC-1 cells were cultured in low (2%) serum alone or with a combination of IGF-1 (50 nM) and HRG (10 nM).

[5] = test system: BxPC-3 cell line xenografts; experiment: BxPC-3 xenograft efficacy study; assay type: in vivo, mice
Experimental: For the efficacy studies (FIGS. 6C and 9C), nu/nu female mice were inoculated with 8×10^6 DU145 cells and 5×10^6 BxPC-3 cells, respectively. […] Tumor volume was measured weekly as described in Example 4.

[6] = test system: CFPAC-1 pancreatic cancer cells; experiment: Receptor ubiquitination, immunoprecipitation and immunoblotting; assay type: cell-based, human; conditions: 500 nM MM-141 20 minutes after 2 hours 1 μM epoxomicin
Text: Cell lysates were immunoprecipitated (IP) with an IGF-1R (FIG. 33C) or ErbB3 (FIG. 33D) antibody, and then immunoblotted (IB) for IGF-1R, ErbB3, or ubiquitin protein (Ub) expression by western blotting.

total IGF-1 in serum = experiment: Phase 1 PD analysis of total IGF-1 in serum (Quantikine ELISA); assay type: in vivo, human
Experimental: as §1

[7] = test system: CFPAC-1 pancreatic cancer cells; experiment: CellTiter-Glo viability in three-dimensional nano-culture plates; assay type: cell-based, human
Experimental: CFPAC-1 pancreatic cancer cells were seeded in 10% serum-containing medium and incubated in 96-well three-dimensional nano-culture plates overnight. […] Cell viability was measured 96 hours post-treatment using CellTiter-Glo® (Promega).

[8] = test system: BxPC-3 (KRas wild-type) pancreatic cancer cells; experiment: pAKT western blot, GSK-1120212 and MM-141; assay type: cell-based, human; conditions: 24 h
Experimental: Following treatment, cells were harvested in cell lysis buffer and western blotting was performed and quantified for pAKT (Serine 473).

[9] = test system: panel of pancreatic cancer cell lines; experiment: pAKT ELISA after HRG and IGF-1 stimulation; assay type: cell-based, human; conditions: MM-141 500 nM 24 hours, HRG and IGF-1 100 ng/mL 15 minutes, ten cell lines
Experimental: Ten pancreatic cancer cell lines (see Table 3 above) were seeded at 65% confluence in 10% serum-containing medium and incubated in 96-well plates overnight. […] Following incubation, cells were treated with a combination of HRG and IGF-1 ligands at 100 ng/mL or PBS (control) for 15 minutes. After treatment, cells were harvested and protein lysates generated. Changes in pAKT levels across all treatments and cell lines were evaluated by pAKT ELISA. Phosphorylated AKT signal from untreated control was subtracted from each treatment, and then pAKT levels post-treatment with HRG and IGF-1 were normalized to 1 for each cell line.

[10] = single agent, MM-141 30 mpk i.p. or everolimus 10 mpk orally, 2 doses, tumors harvested 24 hours after second dose
[11] = MM-141 500 nM added to paclitaxel 50 nM

In the case of “MM-141: polyvalent bispecific antibody P4-G1-M1.3, anti-IGF-1R and anti-ErbB3; heavy chain SEQ ID NO: 3, light chain SEQ ID NO: 4”, the “sorafenib-induced up-regulation of ErbB3 and pAKT” value [1] is reported as “overcome”, the Half-lives ([2]; 6 mg/kg q7d) is reported as 2.4 to 6.3 days and the Half-lives ([2]; 12 mg/kg q7d) is reported as 2.1 to 2.9 days. For the same substance, the Half-lives ([2]; 20 mg/kg q7d) was 3.3 to 3.4 days, the Half-lives ([2]; 40 mg/kg q14d) was 3.2 to 9.9 days and the “decrease of ErbB3 expression level” value [3] was “to a greater extent”. For the same substance, the “decrease of IGF-1R expression level” value [3] was “to a greater extent”, the “everolimus-induced upregulation of IGF-1R and ErbB2 (resistance mechanism)” value (CAKI-1 xenografts; MM-141 30 mpk i.p. co-administered with everolimus 10 mpk orally) was “resistance mechanism was inhibited” and the “total ErbB2” value (CAKI-1 xenografts; [10]) was “down regulation”. The “total IGF-1R” value (CAKI-1 xenografts; [10]) was “down regulation”, the “inhibition of cell growth, greater than in the absence of ligand” value (BxPC-3 cells; in presence of HRG) was “approximately 50%” and the “inhibition of cell growth” value (BxPC-3 cells; IGF-1 added to the media) was “maximal activity”. For the same substance, the “inhibition of cell growth” value (BxPC-3 cells; absence of exogenous ligand) was “unable to inhibit cell growth”, the “sensitivity to cytotoxic properties of paclitaxel in a high IGF-1 setting” value [4, 11] was “re-sensitize cells” and the “sensitivity to cytotoxic properties of paclitaxel in the presence of high HRG” value [4, 11] was “re-sensitize cells”. The “resistance to cytotoxic effect of paclitaxel caused by IGF-1 or heregulin” value ([4]; paclitaxel 50 nM, IGF-1 or HRG 0-50 nM, MM-141 500 nM) was “resistance was reversed”, the “tumor growth after development of resistance to gemcitabine” value ([5]; MM-141 30 mpk i.p. q3d added to the gemcitabine regimen on day 41) was “decreased tumor growth” and the “activity of gemcitabine in the combination arm” value ([5]; MM-141 30 mpk i.p. q3d co-administered with gemcitabine 150 mpk i.p. q6d) was “increased the activity of gemcitabine”. For the same substance, the “therapeutic synergy with gemcitabine” value ([5]; MM-141 30 mpk i.p. q3d with gemcitabine 150 mpk i.p. q6d) was “therapeutic synergy”, the “IGF-1R and ErbB3 receptor ubiquitination” value [6] was “induction of ubiquitination; also recorded: enhanced receptor ubiquitination” and the “increase in serum total IGF-1” value (total IGF-1 in serum; 6 mg/kg cohort) was “approximately two-fold in 1/3 patient samples”. The “increase in serum total IGF-1” value (total IGF-1 in serum; 12 mg/kg cohort) was “approximately two-fold in 1/3 patient samples”, the “increase in serum total IGF-1” value (total IGF-1 in serum; 20 mg/kg, all patient samples) was “approximately a two-fold increase” and the “increase in serum total IGF-1” value (total IGF-1 in serum; 40 mg/kg, all patient samples) was “approximately two to four fold increases”. For the same substance, the “proliferation compared to cells incubated with ligands alone” value ([7]; MM-141 1000 nM in addition to HRG 10 nM and IGF-1 50 nM, with gemcitabine or paclitaxel) was “reduced proliferation”, the “sensitivity to gemcitabine in cells stimulated with HRG and IGF-1” value ([7]; gemcitabine 2 nM, HRG 10 nM, IGF-1 50 nM, MM-141 1000 nM, 96 hours) was “restores sensitivity” and the “sensitivity to paclitaxel in cells stimulated with HRG and IGF-1” value ([7]; paclitaxel 6 nM, HRG 10 nM, IGF-1 50 nM, MM-141 1000 nM, 96 hours) was “restores sensitivity”. The “pAKT upregulation induced by the MEK inhibitor” value ([8]; MM-141 1000 nM with GSK-1120212 250 nM) was “decreases the pAKT upregulation”, the “pAKT (Serine 473) level” value ([8]; single agent, GSK-1120212 250 nM or MM-141 1000 nM) was “down-regulates the basal level of pAKT” and the “pAKT (AKT activation) induced by the combination of HRG and IGF-1” value [9] was “blocks AKT activation; also recorded: greatly reduced amount of pAKT”.

From patent US20170096492A1, “DOSAGE AND ADMINISTRATION OF ANTI-IGF-1R, ANTI-ErbB3 BISPECIFIC ANTIBODIES, USES THEREOF AND METHODS OF TREATMENT [sequence]” (Merrimack Pharmaceuticals, Inc., priority 2014, published 2017)
